The text below walks through data of patent US5081289A, “Synthesis and isolation of nopaline and its analogues” (The University of Alabama in Birmingham, priority 1989, dated 1992).

Values after ≈ are worked out from the molar mass of the structure shown. Read-outs that look alike come from different tables or passages of the source.

A word on the solubility: it is the concentration that dissolves in the medium under given conditions. A low value points to little dissolved substance.

The subject of data set [1] is octopine dehydrogenase. Particulars: known substrate specificity; cited from earlier work.
A short description of data set [2]: Solubility in H2O. In kind it is physicochemical. Particulars: water, 22° C.
Data set [3] in a line: Conversion (cyclization) of nopaline / isonopaline to the pyro-derivatives; rate of formation. In kind it is physicochemical. The following applies: for cyclization: above pH 5.5; for reaction rate constant: conversion to pyro-derivative; for first order rate constant, formation of pyrrolidonecarboxylic acid derivative: pH 3.2, 60° C.; for time to completion of conversion to the pyrrolidonecarboxylic acid derivative: pH 3.2, 120° C. (autoclave).

The test system of data set [4] is A. tumefaciens (strain C-58). The data set is described as follows: Growth of A. tumefaciens (turbidity A650, doubling time) with compound as source of carbon and nitrogen. The following applies: for Doubling Time: 0.0045 g/ml in control medium; for utilization as a source of carbon and nitrogen: preinduced and uninduced bacteria. In kind it is cell-based. The method, then: The minimal medium for bacterial growth was the mineral salt mixture described by Petit and Tempe, hereinbefore cited to which glucose was aded to make the final concentration 0.005 g/ml. The control medium was the mineral salt mixture from which the ammonium sulfate was omitted. In order to test whether they would support bacterial growth either nopaline, isonopaline, or the pyrrolidonecarboxylic acid derivative of nopaline or pyronopaline were added separately to the control medium to make the final concentration 0.0045 g/ml.
A single colony from a plate on minimal medium was adapted to liquid medium that contained nopaline. When visibly turbid, the nopaline liquid culture was innoculated (1% innoculum) into minimal liquid medium and into nopaline liquid medium. When turbid, these two cultures were used as inoculum to test the nopaline, isonopaline and pyronopaline in liquid culture media (20 ml in 125 ml flasks). After innoculation (1%), cultures were agitated on a rotary shaker at 1 cycle per second, and growth was monitored by measurement of the turbidity in a spectrophotometer. The turbidity (A650) readings were plotted on log paper and the doubling time was determined from the logarithmic portion of the growth curve (Table II).
Table II contains the results of experiments to test the ability of A. tumefaciens (strain C-58) to utilize the isomers and derivatives of nopaline as a source of carbon and nitrogen. […] The results are the same for both preinduced and uninduced bacteria. As expected the doubling time in minimal medium is greater than that in either nopaline or pyronopaline, since metabolism by the organism is more complex in the […] medium.

The test system of data set [5] is octopine dehydrogenase. The data set is described as follows: Oxidation catalyzed by octopine dehydrogenase. The format is biochemical, scallops (Pecten maximus). Particulars: nopaline / isonopaline as substrate.
Data set [6] can be described thus: Stability in bacteria-free tumor extract. The format is physicochemical. The following applies: pH 5.3, 10 days, room temperature.
A short description of data set [7]: Reverse reaction (stability) of the pyrrolidonecarboxylic acid derivative of nopaline at 100° C. The following applies: 100° C. in NaOH, Na2CO3 (both at 0.1M), or HCl (3M). In kind it is physicochemical.

For the compound `C[C@@H](N[C@@H](CCCNC(=N)N)C(=O)O)C(=O)O` [D-octopine], the “oxidation catalyzed by octopine dehydrogenase” value (from here on “oxidation catalyzed”) in data set [1] is “catalyzes the oxidation of D-octopine”.

Compound `N=C(N)NCCC[C@H](N[C@@H](CCC(=O)O)C(=O)O)C(=O)O` [Isonopaline] had a solubility in data set [2] of 21.3 mg/mL (≈ 70 mM). In addition, the “time for completed conversion to the pyro-derivative” value in data set [3] (60° C., pH 3.2) was “approximately 100 hours”. In addition, in data set [3], the cyclization entry is “neither nopaline nor isonopaline is demonstrable”; the reaction rate constant was found to be 3.5e-08 s⁻¹; the “first order rate constant, formation of pyrrolidonecarboxylic acid derivative” value is 0.35×10^-7 S^-1; the “time to completion of conversion to the pyrrolidonecarboxylic acid derivative” value is 30 min. The “Doubling Time” value in data set [4] (Preinduced Innoculum) was “no growth”. Also, the “Doubling Time” value in data set [4] (Uninduced Innoculum) was “no growth”. Further, in data set [4], the “utilization as a source of carbon and nitrogen” value (“utilization as a source” for short) was “completely ineffective”. Besides, the “oxidation catalyzed” value in data set [5] is on record as “not that of isonopaline”.

`C[C@H](N[C@@H](CCCNC(=N)N)C(=O)O)C(=O)O` [L-allooctopine]: the “oxidation catalyzed” value in data set [1] is recorded as “not of L-allooctopine”.

Take `N=C(N)NCCC[C@H](N[C@H](CCC(=O)O)C(=O)O)C(=O)O` [Nopaline, N-(4-((aminoiminomethyl)amino-)-1S-carboxybutyl)-2R-2-pentanedioic acid]: the solubility in data set [2] amounted to 6.3 mg/mL (≈ 20.7 mM). In data set [3] (22° C. and 100° C.), the “relative rate of reaction of nopaline vs isonopaline” value is given as “faster reaction”. In addition, the “time of conversion to the pyro-derivative” value in data set [3] (60° C.) lay in the range of 18 to 24 h. Also, in data set [3] (100° C., pH 0.0), the “time for completed conversion to the pyro-derivative” value is reported as “approximately 1.0 hours”. In data set [3] (100° C., pH 3.2), the “time for quantitative conversion to the pyro-derivative” value is “approximately 2 hours”. The “time of conversion to the pyro-derivative” value in data set [3] (121° C.) was “approximately 30 minutes”. In data set [3], the cyclization result is recorded as “neither nopaline nor isonopaline is demonstrable”; the reaction rate constant stood at 4.6e-07 s⁻¹; the “first order rate constant, formation of pyrrolidonecarboxylic acid derivative” value was 4.6×10^-7 S^-1; the “time to completion of conversion to the pyrrolidonecarboxylic acid derivative” value amounted to 30 min. For the same compound, in data set [3] (pH above approximately 5.5, 48 hours at 100° C.), the “conversion to the pyro-derivatives” value is “too slow to be readily measured”. For the same compound, in data set [6], the “change of concentration in tumor extract” value is recorded as “did not change”. For the same compound, in data set [4] (Preinduced Innoculum), the “Doubling Time” value is 2.8 h. Further, the “Doubling Time” value in data set [4] (Uninduced Innoculum) was 2.8 h. In addition, the “utilization as a source” value in data set [4] is listed as “metabolized”. In addition, the “oxidation catalyzed” value in data set [5] was “catalyzed the oxidation of nopaline”.

As to `N=C(N)NCCC[C@@H](C(=O)O)N1C(=O)CC[C@@H]1C(=O)O` [Pyronopaline, N-(4-((aminoiminomethyl)amino)-1S-carboxybutyl)-2-pyrrolidone-5R-carboxylic acid], the concentration in solution in data set [2] (solubility) was 34.5 mg/mL (≈ 121 mM). The reverse reaction entry in data set [7] is “No significant reverse reaction”. The “change of concentration in tumor extract” value in data set [6] is “did not change”. For the same compound, the “Doubling Time” value in data set [4] (Preinduced Innoculum) and in data set [4] (Uninduced Innoculum) was 3.1 h in each case. Moreover, in data set [4], the “utilization as a source” value is “metabolized”.
